Measured values: patent publication US11649261B2, “Crystalline forms of a CD73 inhibitor and uses thereof” (ARCUS BIOSCIENCES, INC., priority 2020, dated 2023)
Entries after “also recorded” stand apart in the source; their conditions may differ. Like-named read-outs stand apart in the source and are kept apart here.

Experiments:
Type in all cases: physicochemical
[1] = Equilibrium solubility of Form I and Form II + V in EtOH/EtOAc, with XRPD of the end solids; details: for Solubility (wt %) / solubility: overnight; for End Form by XRPD: slurry 20° C. overnight
Protocol: Equilibrium solubilities of Form I and Form V were measured in EtOH/EtOAc at different ratios at 20° C. The Form V starting material contains some Form II as determined by XRPD.
In a 4 mL vial, 50 mg of the appropriate solid was mixed with 1 mL of each solvent. The resulting slurry was shaken at 600 rpm at 20° C. overnight. The supernatant from each vial was sampled for HPLC for equilibrium solubility, and the solids isolated and characterized by XRPD.

[2] = Equilibrium solubility of Forms I, II and V in EtOH/Heptane; details: EtOH/HPT, all solvent ratios, 20 and 35° C.
Protocol: Equilibrium solubilities of Forms I, II and V were measured in EtOH/Heptane (HPT) solutions of different ratios at 20 and 35° C.
In 4 mL test vial, the appropriate solids (Form I or Form II containing Form V) were mixed with ˜1 mL of each solvent to generate slurry. The resulting slurry was shaken at 600 rpm at 20 and 35° C. overnight. After overnight aging, supernatant from each vial was sampled for HPLC for equilibrium solubility, solids were isolated to check by XRPD.

[3] = Competitive slurry of crystalline forms in a 1:2 mixture of EtOH(anhydrous):EtOAc; details: 1:2 EtOH (anhydrous):EtOAc
Protocol: A flask was charged with crystalline Form A (1.5 g) and crystalline Form I (1.5 g) with 30 mL of a 1:2 mixture of ethanol (anhydrous) and ethyl acetate. The resulting mixture was allowed to stir at room temperature for 5 hours resulting in a thick white slurry. An additional 6 mL of the 1:2 EtOH (anhydrous):EtOAc mixture was added. The suspension was allowed to stir for 5 days. A small sample of the suspension was pulled from the mixture after 22 hr, 46 hr and 118 hr. The samples were filtered, and dried in an oven at room temperature for 2-3 hr and characterized by XRPD.
A 20 mL vial was charged with 0.2 g of Form V and 0.2 g of Form I with 4 mL of a 1:2 EtOH (anhydrous):EtOAc mixture. The resulting suspension was stirred vigorously for 3 days. The suspension was filtered, and the solid was dried under reduced pressure at RT for 3 hr.
A 15 mL round bottom flask was equipped with a stir bar, thermometer and N2 inlet, and was charged with 0.25 g Form I and 0.25 g Form V. To the flask was added 6 mL of a 1:2 EtOH (anhydrous):EtOAc mixture was added to the flask resulting in a white suspension. The suspension was heated to 35° C. and stirred vigorously for 2 days. The suspension was filtered, and the resulting solid dried under reduced pressure at RT for 3 hr.
A 20 mL vial was charged with 0.2 g Form I and 0.2 g Form II. […]

[4] = Dynamic vapor sorption (DVS); details: for Form of post-DVS sample by XRPD: after DVS at 25° C.
Protocol: Approximately 10 mg of sample was placed into a mesh vapor sorption balance pan and loaded into a DVS-1, DVS Intrinsic or DVS Advantage dynamic vapor sorption balance by Surface Measurement Systems. The sample was subjected to a ramping profile from 40-90% relative humidity (RH) at 10% increments, maintaining the sample at each step until a stable weight had been achieved (dm/dt 0.004%, minimum step length 30 min, maximum step length 500 min) at 25° C. After completion of the sorption cycle, the sample was dried using the same procedure to 0% RH and then a second sorption cycle back to 90% RH. Two cycles were performed. The weight change during the sorption/desorption cycles were plotted, allowing for the hygroscopic nature of the sample to be determined. XRPD analysis was then carried out on any solid retained.
Form I and II were analyzed by dynamic vapor sorption (DVS) at 25° C. (FIG. 16 and FIG. 17).

[5] = Competitive slurry conversion testing of Forms I, II and V in EtOH/EtOAc at 20° C.
Protocol: The relative form stability between Forms I, II and V was investigated by aging mixtures of the mixed forms in EtOH, EtOAc, and mixtures thereof. The Form V starting material contained some Form II as determined by its XRPD pattern.
In two 4 mL vials, enough Form I and Form V (containing some Form II) were mixed with 1 mL of the appropriate solvent to generate a slurry in each vial. The two slurries were combined and shaken at 600 rpm at 20° C. The solids from the slurries were isolated for XRPD characterization at time 0, 1 day and 2 days (FIG. 12A-D).

[6] = Form V / Form II interconversion on storage, drying and reslurry
Protocol: Increasing the temperature to 40° C. and drying Form V under vacuum increased the conversion rate to Form II (full conversion observed after 48 hr).

[7] = 100 V % EtOH in EtOH/EtOAc, 20° C.
[8] = ≤20 v % EtOH system, aging for two days

## C[C@H](Nc1cc(Cl)nc2c1cnn2[C@@H]1O[C@H](COP(=O)(O)CP(=O)(O)O)[C@@H](O)[C@H]1O)c1ccccc1F [Form I, (((((2R,3S,4R,5R)-5-(6-chloro-4-(((S)-1-(2-fluorophenyl)ethyl)amino)-1H-pyrazolo[3,4-b]pyridin-1-yl)-3,4-dihydroxytetrahydrofuran-2-yl)methoxy)(hydroxy)phosphoryl)methyl)phosphonic acid]
[1]; 0 V % EtOH in EtOH/EtOAc, 20° C.
  Solubility (wt %): 0.0% wt %
[1]; 0 V % EtOH in EtOH/EtOAc
  End Form by XRPD: Form I
[1]; 20 V % EtOH in EtOH/EtOAc, 20° C.
  Solubility (wt %): 0.1% wt %
[1]; 20 V % EtOH in EtOH/EtOAc
  End Form by XRPD: Form I
[1]; 33 V % EtOH in EtOH/EtOAc, 20° C.
  Solubility (wt %): 1.0% wt %
[1]; 33 V % EtOH in EtOH/EtOAc
  End Form by XRPD: Form I
[1]; 50 V % EtOH in EtOH/EtOAc, 20° C.
  Solubility (wt %): 1.7% wt %
[1]; 50 V % EtOH in EtOH/EtOAc
  End Form by XRPD: Form I
[1]; 67 V % EtOH in EtOH/EtOAc, 20° C.
  Solubility (wt %): 3.0% wt %
[1]; 67 V % EtOH in EtOH/EtOAc
  End Form by XRPD: Form I
[1]; 80 V % EtOH in EtOH/EtOAc, 20° C.
  Solubility (wt %): 4.2% wt %
[1]; 80 V % EtOH in EtOH/EtOAc
  End Form by XRPD: Form I
[1]; [7]
  Solubility (wt %): 6.4% wt %
  solubility: 46.54 mg/mL
[1]; 100 V % EtOH in EtOH/EtOAc
  End Form by XRPD: Form I
[1]; EtOAc rich solvent system except for too high EtOAc (with too low solubility)
  Relative form stability: more stable than Forms II and V
[1]; EtOH/EtOAc solvent mixture, 20 °C, organic solvent or mixture, thermodynamic from solid, 20 V % EtOH in EtOH/EtOAc, 20° C., read-out: Solubility
  solubility: 1.01 mg/mL
[1]; EtOH/EtOAc solvent mixture, 20 °C, organic solvent or mixture, thermodynamic from solid, 33 V % EtOH in EtOH/EtOAc, 20° C., read-out: Solubility
  solubility: 8.93 mg/mL
[1]; EtOH/EtOAc solvent mixture, 20 °C, organic solvent or mixture, thermodynamic from solid, 50 V % EtOH in EtOH/EtOAc, 20° C., read-out: Solubility
  solubility: 13.7 mg/mL
[1]; EtOH/EtOAc solvent mixture, 20 °C, organic solvent or mixture, thermodynamic from solid, 67 V % EtOH in EtOH/EtOAc, 20° C., read-out: Solubility
  solubility: 23.7 mg/mL
[1]; EtOH/EtOAc solvent mixture, 20 °C, organic solvent or mixture, thermodynamic from solid, 80 V % EtOH in EtOH/EtOAc, 20° C., read-out: Solubility
  solubility: 32.8 mg/mL
[1]; EtOH/EtOAc solvent mixture, 20 °C, organic solvent or mixture, thermodynamic from solid, 100 V % EtOH in EtOH/EtOAc, 20° C., read-out: Solubility
  solubility: ~46 mg/mL
[1]; EtOH/EtOAc, all ratios, 20° C.
  Crystal form change in solubility vials: No crystal form change
[2]
  Solubility compared between forms: higher than the solubility of Form II/V mixtures
[3]; 35° C., 2 days
  Relative form stability: more stable than Form V; also recorded: more stable than Form II
[3]; RT
  Relative form stability: more stable than Form A; also recorded: more stable than Form V; also recorded: more stable than Form II
[4]
  Form of post-DVS sample by XRPD: conversion to Form VI
[5]; solvents with ≥80 v % EtOH
  Form conversion in competitive slurry: converted to Form II
[5]; [8]
  Form conversion in competitive slurry: remained

## C[C@H](Nc1cc(Cl)nc2c1cnn2[C@@H]1O[C@H](COP(=O)(O)CP(=O)(O)O)[C@@H](O)[C@H]1O)c1ccccc1F [Form II, (((((2R,3S,4R,5R)-5-(6-chloro-4-(((S)-1-(2-fluorophenyl)ethyl)amino)-1H-pyrazolo[3,4-b]pyridin-1-yl)-3,4-dihydroxytetrahydrofuran-2-yl)methoxy)(hydroxy)phosphoryl)methyl)phosphonic acid]
[1]; EtOH rich or EtOAc lean solvent systems
  Relative form stability: more stable than Forms I and V
[6]; 1:1 EtOH:EtOAc mixture overnight with stirring
  Form recovered after resuspending: recovery of Form V
[4]
  Form of post-DVS sample by XRPD: conversion to Form VI
[4]; from 40% to 70% relative humidity (RH), 25° C.
  Water uptake compared with Form I: much less water uptake

## C[C@H](Nc1cc(Cl)nc2c1cnn2[C@@H]1O[C@H](COP(=O)(O)CP(=O)(O)O)[C@@H](O)[C@H]1O)c1ccccc1F [Form V, (((((2R,3S,4R,5R)-5-(6-chloro-4-(((S)-1-(2-fluorophenyl)ethyl)amino)-1H-pyrazolo[3,4-b]pyridin-1-yl)-3,4-dihydroxytetrahydrofuran-2-yl)methoxy)(hydroxy)phosphoryl)methyl)phosphonic acid]
[6]; 40° C., drying under vacuum
  Time for full conversion to Form II: 48 h
[6]; stored at ambient temperature under an N2 blanket
  Time for full conversion to Form II: > 48 h
[5]; 50~33 v % EtOH solvents
  Form conversion in competitive slurry: converted to Form I
[5]; solvents with ≥80 v % EtOH
  Form conversion in competitive slurry: converted to Form II
[5]; [8]
  Form conversion in competitive slurry: remained
